Data: ChEMBL document CHEMBL1201862, “PubChem BioAssay data set” (2004)
Active and inactive are the calls of the source.

Tests used:
Type in all cases: functional
[1] = HepG2 cell cytotoxicity, dose response, cytotoxicity control for non-replicating M. tuberculosis project (AID 489018); settings: Mycobacterium tuberculosis
[2] = molecular target: Polyadenylate-binding protein 1 (Homo sapiens, UniProt P11940); experiment: MLLE domain peptide-binding blockers, IC50 – biochemical, fluorescence polarization, FITC-PAM2 peptide, dose response (AID 602259); settings: read-out: IC50_Mean
Sequence of Polyadenylate-binding protein 1 (P11940 whole entry, the tested form may be a part): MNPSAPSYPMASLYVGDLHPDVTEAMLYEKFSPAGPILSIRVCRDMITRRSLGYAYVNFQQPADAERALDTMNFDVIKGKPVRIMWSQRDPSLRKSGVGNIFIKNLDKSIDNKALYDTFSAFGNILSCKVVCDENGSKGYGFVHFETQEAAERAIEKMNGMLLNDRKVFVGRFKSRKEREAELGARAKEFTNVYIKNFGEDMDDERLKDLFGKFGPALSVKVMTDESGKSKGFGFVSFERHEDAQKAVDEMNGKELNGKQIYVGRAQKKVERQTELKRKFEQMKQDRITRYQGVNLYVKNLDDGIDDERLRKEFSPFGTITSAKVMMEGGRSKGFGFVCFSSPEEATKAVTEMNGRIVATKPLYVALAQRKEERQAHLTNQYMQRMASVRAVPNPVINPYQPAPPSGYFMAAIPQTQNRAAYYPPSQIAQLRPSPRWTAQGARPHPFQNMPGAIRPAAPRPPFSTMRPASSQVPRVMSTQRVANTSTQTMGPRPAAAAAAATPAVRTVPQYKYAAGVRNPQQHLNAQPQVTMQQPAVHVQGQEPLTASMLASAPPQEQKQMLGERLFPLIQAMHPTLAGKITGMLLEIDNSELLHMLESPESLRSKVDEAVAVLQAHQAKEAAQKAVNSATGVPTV

[3] = molecular target: T1, Apoptotic protease-activating factor 1 (Homo sapiens, UniProt O14727)
T1 sequence (O14727 whole entry): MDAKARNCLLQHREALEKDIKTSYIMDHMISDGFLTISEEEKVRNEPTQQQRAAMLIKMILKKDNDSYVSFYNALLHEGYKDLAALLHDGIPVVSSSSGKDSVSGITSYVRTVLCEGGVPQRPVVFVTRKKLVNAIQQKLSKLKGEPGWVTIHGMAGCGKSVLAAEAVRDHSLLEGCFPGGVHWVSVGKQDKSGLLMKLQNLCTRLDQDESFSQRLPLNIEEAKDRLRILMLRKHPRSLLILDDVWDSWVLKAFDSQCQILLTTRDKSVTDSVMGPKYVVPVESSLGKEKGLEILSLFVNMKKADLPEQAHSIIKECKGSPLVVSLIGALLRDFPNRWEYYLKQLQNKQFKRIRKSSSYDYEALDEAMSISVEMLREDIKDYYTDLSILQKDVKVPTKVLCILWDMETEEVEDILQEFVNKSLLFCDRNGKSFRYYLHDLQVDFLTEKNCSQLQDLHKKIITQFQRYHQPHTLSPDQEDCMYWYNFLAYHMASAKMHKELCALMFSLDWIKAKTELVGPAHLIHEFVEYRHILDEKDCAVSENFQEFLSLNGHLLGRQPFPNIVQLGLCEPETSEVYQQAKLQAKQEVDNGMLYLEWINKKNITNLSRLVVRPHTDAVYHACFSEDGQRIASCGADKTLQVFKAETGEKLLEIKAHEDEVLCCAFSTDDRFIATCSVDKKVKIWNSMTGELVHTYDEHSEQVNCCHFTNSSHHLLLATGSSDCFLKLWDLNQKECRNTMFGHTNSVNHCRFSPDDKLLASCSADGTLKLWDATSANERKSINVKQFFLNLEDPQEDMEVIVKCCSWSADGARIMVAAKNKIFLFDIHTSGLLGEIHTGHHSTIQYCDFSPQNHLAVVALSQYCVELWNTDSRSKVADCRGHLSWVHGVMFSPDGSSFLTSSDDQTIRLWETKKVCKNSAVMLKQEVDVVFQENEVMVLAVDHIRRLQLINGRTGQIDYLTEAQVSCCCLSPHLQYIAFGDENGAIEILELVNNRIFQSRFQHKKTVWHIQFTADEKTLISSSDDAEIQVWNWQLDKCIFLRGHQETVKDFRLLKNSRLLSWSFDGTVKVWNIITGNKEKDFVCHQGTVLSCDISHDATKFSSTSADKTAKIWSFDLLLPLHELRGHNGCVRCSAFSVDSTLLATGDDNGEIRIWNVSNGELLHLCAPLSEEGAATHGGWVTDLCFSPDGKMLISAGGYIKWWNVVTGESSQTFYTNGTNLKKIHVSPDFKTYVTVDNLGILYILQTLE

Caspase-3 = molecular target: T2, Caspase-3 (Homo sapiens, UniProt P42574);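 note: Dose-response selectivity test against caspase-3 for candidate inhibitors of sentrin-specific proteases (SENPs)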
T2 sequence (P42574 whole entry): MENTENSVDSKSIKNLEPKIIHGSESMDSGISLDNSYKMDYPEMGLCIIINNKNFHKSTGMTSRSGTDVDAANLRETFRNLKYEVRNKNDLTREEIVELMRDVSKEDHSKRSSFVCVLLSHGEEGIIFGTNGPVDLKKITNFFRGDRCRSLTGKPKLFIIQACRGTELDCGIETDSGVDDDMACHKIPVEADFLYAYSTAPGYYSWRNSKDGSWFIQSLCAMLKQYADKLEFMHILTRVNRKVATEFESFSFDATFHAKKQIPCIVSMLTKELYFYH

[4] = molecular target: T3, Heat shock factor protein 1 (Mus musculus, UniProt P38532); experiment: decrease of HSF1-responsive luciferase luminescence – cell-based, NIH3T3, dose retest, confirmation (AID 2382);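 note: NIH3T3 fibroblasts with HSF1-driven luciferase reporter stressed by proteasome inhibitor MG132; luminescence from HSF1-driven luciferase expression after 8 hours of MG132 stress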
T3 sequence (P38532 whole entry): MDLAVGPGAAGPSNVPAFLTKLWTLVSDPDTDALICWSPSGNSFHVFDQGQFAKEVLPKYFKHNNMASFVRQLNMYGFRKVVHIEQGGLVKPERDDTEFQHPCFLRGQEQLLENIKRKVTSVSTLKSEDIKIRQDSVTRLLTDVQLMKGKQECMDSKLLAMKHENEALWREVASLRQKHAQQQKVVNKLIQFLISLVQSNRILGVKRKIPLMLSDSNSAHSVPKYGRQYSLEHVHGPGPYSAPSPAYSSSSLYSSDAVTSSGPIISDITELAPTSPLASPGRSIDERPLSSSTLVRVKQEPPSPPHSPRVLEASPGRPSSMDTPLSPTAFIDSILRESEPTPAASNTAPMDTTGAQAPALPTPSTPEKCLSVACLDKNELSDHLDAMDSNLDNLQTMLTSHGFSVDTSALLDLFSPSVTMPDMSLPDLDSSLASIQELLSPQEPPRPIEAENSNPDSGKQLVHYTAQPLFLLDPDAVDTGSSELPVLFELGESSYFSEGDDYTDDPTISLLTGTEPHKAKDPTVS

Fatty acid synthase = Fatty acid synthase (Homo sapiens, UniProt P49327); experiment: inhibition of human FAS-TE enzyme activity – biochemical, kinetic fluorescence intensity, dose response (AID 624326);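 note: rate of fluorescence rise from hydrolysis of a fluorogenic O-methyl fluorescein ester substrate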
Sequence of Fatty acid synthase (P49327 whole entry): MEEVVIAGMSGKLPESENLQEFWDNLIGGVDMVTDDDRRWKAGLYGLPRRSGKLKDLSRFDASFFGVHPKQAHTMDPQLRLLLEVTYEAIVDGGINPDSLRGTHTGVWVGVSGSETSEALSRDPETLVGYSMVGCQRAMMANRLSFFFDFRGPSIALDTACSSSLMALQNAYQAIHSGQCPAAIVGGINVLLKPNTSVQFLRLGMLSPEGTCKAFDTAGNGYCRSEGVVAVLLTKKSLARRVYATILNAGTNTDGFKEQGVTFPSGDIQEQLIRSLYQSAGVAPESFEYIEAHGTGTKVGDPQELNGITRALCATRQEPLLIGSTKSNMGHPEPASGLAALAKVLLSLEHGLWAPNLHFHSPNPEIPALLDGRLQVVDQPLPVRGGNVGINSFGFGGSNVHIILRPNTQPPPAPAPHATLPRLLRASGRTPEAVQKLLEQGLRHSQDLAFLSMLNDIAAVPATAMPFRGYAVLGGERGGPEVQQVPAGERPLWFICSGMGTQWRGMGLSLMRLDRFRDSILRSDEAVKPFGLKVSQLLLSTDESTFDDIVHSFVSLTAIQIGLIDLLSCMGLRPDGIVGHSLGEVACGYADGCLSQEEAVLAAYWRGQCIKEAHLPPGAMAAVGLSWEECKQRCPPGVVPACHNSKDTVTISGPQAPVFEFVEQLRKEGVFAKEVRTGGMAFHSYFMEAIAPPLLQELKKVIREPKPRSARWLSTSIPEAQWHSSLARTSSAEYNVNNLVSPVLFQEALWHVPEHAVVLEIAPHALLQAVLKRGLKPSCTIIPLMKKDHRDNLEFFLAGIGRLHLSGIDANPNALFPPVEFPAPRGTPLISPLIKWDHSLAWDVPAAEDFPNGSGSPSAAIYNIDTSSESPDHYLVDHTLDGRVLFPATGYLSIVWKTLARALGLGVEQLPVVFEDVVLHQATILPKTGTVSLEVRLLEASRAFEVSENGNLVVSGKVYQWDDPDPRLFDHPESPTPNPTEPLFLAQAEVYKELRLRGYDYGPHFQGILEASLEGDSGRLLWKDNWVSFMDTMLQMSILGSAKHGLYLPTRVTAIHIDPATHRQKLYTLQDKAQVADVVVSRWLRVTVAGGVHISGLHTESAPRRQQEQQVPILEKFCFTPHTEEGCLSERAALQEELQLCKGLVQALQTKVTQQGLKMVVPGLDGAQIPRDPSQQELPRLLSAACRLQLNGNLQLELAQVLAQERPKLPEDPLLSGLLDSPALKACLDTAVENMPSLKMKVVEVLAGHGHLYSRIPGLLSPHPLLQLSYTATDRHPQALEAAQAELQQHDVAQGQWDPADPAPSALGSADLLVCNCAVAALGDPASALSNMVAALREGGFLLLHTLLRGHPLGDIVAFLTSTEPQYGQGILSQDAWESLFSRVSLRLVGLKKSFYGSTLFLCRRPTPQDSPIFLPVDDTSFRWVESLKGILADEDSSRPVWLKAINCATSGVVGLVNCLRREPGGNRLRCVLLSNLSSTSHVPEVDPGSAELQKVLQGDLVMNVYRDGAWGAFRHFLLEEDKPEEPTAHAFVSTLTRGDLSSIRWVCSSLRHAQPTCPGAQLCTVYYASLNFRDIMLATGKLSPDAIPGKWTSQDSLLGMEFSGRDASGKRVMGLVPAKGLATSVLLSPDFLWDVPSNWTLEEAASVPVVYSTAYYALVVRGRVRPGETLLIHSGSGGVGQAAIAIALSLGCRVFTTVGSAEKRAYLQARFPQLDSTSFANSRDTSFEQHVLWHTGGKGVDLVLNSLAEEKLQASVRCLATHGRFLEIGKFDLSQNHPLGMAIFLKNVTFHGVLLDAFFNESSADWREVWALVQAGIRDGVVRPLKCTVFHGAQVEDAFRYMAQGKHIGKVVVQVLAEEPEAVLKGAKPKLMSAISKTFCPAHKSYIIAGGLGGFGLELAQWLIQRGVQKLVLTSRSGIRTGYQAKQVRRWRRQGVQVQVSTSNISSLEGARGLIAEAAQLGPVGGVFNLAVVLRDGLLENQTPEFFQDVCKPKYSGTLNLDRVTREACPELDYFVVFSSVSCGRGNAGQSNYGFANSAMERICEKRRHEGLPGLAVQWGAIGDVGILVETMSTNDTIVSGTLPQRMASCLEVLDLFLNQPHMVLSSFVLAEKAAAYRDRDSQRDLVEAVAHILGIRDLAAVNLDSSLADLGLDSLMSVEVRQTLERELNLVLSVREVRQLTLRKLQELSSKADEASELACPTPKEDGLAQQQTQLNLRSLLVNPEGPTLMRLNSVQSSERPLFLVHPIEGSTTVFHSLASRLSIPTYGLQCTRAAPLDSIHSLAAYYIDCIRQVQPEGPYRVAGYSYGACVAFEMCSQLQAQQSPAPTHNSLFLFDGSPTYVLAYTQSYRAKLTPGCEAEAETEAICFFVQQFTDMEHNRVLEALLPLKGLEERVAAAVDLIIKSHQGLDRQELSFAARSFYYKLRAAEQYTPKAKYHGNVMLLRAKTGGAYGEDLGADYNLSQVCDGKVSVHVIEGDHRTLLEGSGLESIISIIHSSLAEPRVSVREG

O=C(CNc1cccc2ccccc12)N/N=C/c1ccc([N+](=O)[O-])o1
CC50 [1]: 17.5 µM (active)

O=C(O)CSc1cc(NS(=O)(=O)c2ccc(Br)cc2)c2ccccc2c1O
IC50 [2]: > 66 µM (inactive)

O=C1NC(=S)N/C1=C/c1cc2c(cc1[N+](=O)[O-])OCO2
IC50 [3]: 12.9 µM (active)
IC50 (Caspase-3): 27.6 µM (active)

Cc1ccc(NC(=O)C2=C(c3ccccc3)S(=O)(=O)CCS2(=O)=O)cc1
EC50 [4]: 6.3 µM (active)
IC50 (Fatty acid synthase): 1.61 µM (active)
